Patent US8389541B2, “Inhibitors of protein tyrosine kinase activity” (MethylGene Inc., priority 2007, dated 2013)
Read-outs that look alike come from different tables or passages of the source.

Experiments:
MKN45 tumor = experiment: In vivo solid tumor disease model, MKN45; parameters: species or system mice; conditions: Mus musculus, MKN-45, po, read-out: Tumor Growth Inhibition (%); for inhibition in vivo at 20 mg/kg: MKN45, 20 mg/kg orally daily; for inhibition in vivo at 40 mg/kg: 336 h, MKN45, 40 mg/kg orally daily, 14 days
A549 cells = experiment: Wound healing assay in A549 cells (HGF-stimulated); assay type: cell-based; conditions: Homo sapiens, last dose that inhibited gap closing by more than 25%, 24 h, read-out: A549 WOUND_HEALING IC50
Protocol: Wound healing assay in A549 cells. A549 cells (ATCC) are seeded in DMEM low glucose medium complemented with 10% FBS into 24-well plates at a density of 7.5×10^4 cells/well and grown to confluence (48 h). Inhibitors were added to the medium at a range of doses (0.00032-10 uM) for 3 h at which point a gap is introduced by scraping cells with a P1000 pipette tip. Cells are then stimulated to migrate by the addition of HGF (in the form of conditioned medium from 293T cells over-expressing the human HGF gene) and the culture is continued for 24 h. […] For the purpose of standardization, a control is carried on every assay plates.

DU145 cells = experiment: Scatter assay in DU145 cells (HGF-stimulated); assay type: cell-based; conditions: Homo sapiens, DU-145, last dose that created an inhibitory effect on scattering, 24 h, read-out: DU145 SCATT. INHIB IC50
Protocol: Scatter assays in DU145. The scatter assay is performed as described previously (Miura H, Nishimura K, Tsujimura A, Matsumiya K, Matsumoto K, Nakamura T, et al. Effects of hepatocyte growth factor on E-cadherin-mediated cell-cell adhesion in DU145 prostate cancer cells. Urology 2001; 58(6):1064-9) for DU145 prostate carcinoma cells with the indicated modifications. In brief, DU145 cells (ATCC) are seeded in 24-well plates at a density of 7×10^3 cells/well in MEM medium complemented with 10% FBS and cultured for 48 h, to allow the formation of small compact colonies of cells. Inhibitors are subsequently added at a range of doses (0.00032-10 uM) for 3 h. Cells are then stimulated to migrate by the addition of HGF (in the form of conditioned medium from 293T cells over-expressing the human HGF gene) and the culture is continued for another 24 h. The IC50 values is defined as the last dose that created an inhibitory effect on scattering. For the purpose of standardization a control is carried on every test plates for the DU145 scattering assays.

VEGF receptor KDR = molecular target: T1, VEGF receptor KDR (Homo sapiens, UniProt P35968); experiment: In vitro receptor tyrosine kinase assay (DELFIA), VEGF receptor KDR; assay type: biochemical; conditions: GST-VEGFR2 806-1356, 0.6 uM ATP; read-out: VEGFR IC50
T1 construct: made in house; host or cells: Sf9 cells (Spodoptera frugiperda), baculovirus
T1 sequence (P35968 806-1356): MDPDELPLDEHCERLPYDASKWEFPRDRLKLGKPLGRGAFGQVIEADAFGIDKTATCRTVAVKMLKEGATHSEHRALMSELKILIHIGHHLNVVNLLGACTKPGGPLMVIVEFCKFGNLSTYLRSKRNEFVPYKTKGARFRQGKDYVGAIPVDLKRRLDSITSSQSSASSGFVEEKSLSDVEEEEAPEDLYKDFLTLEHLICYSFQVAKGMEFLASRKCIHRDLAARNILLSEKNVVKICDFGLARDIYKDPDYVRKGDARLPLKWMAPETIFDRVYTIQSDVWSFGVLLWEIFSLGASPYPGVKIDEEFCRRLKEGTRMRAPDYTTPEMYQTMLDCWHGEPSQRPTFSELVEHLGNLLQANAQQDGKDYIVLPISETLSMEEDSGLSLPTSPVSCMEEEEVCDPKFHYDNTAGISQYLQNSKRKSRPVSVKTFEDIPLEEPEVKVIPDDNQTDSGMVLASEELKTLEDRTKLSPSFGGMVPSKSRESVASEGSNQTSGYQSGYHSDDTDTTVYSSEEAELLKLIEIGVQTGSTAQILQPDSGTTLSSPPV
Excerpt: In the case of VEGF receptor KDR a 1.6-kb cDNA corresponding to the catalytic domain of VEGFR2 or KDR (Genbank accession number AF035121 amino acid 806 to 1356) is cloned into the Pst I site of the pDEST20 Gateway vector (Invitrogen) for the production of a GST-tagged version of that enzyme.
The GST-VEGFR2806-1356 protein is expressed in Sf9 cells (Spodoptera frugiperda) upon infection with recombinant baculovirus construct.
The supernatant is loaded onto a GST-agarose column (Sigma) equilibrated with PBS pH 7.3. Following a four column volume (CV) wash with PBS pH 7.3+1% Triton X-100 and 4 CV wash with buffer B (50 mM Tris pH 8.0, 20% glycerol and 100 mM NaCl), bound proteins are step eluted with 5 CV of buffer B supplemented with 5 mM DTT and 15 mM glutathion. […] Final GST-VEGFR2806-1356 protein preparations concentrations are about 0.7 mg/ml with purity approximating 70%.

[1] = molecular target: recombinant human c-Met/HGF receptor (Homo sapiens, UniProt P08581); experiment: In vitro receptor tyrosine kinase assay (DELFIA), c-Met/HGF receptor
Chain of recombinant human c-Met/HGF receptor (P08581 1078-1337): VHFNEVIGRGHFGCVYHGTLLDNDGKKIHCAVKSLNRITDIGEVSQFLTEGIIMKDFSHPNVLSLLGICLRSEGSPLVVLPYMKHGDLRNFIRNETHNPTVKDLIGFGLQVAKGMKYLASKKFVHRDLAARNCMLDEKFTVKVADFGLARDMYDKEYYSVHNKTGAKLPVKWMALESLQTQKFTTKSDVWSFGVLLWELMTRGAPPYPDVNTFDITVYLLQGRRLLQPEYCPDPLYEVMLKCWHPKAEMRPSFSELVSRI

c-Met = molecular target: T2, c-Met (Homo sapiens, UniProt P08581); experiment: Inhibition of c-Met phosphorylation in MKN45 cells (direct ELISA); assay type: cell-based; conditions: 3 h treatment, read-out: CMET ELISA IN MKN45 IC50
T2 construct: endogenous in cells; host or cells: MKN45 gastric carcinoma cells
T2 sequence (P08581 25-1390): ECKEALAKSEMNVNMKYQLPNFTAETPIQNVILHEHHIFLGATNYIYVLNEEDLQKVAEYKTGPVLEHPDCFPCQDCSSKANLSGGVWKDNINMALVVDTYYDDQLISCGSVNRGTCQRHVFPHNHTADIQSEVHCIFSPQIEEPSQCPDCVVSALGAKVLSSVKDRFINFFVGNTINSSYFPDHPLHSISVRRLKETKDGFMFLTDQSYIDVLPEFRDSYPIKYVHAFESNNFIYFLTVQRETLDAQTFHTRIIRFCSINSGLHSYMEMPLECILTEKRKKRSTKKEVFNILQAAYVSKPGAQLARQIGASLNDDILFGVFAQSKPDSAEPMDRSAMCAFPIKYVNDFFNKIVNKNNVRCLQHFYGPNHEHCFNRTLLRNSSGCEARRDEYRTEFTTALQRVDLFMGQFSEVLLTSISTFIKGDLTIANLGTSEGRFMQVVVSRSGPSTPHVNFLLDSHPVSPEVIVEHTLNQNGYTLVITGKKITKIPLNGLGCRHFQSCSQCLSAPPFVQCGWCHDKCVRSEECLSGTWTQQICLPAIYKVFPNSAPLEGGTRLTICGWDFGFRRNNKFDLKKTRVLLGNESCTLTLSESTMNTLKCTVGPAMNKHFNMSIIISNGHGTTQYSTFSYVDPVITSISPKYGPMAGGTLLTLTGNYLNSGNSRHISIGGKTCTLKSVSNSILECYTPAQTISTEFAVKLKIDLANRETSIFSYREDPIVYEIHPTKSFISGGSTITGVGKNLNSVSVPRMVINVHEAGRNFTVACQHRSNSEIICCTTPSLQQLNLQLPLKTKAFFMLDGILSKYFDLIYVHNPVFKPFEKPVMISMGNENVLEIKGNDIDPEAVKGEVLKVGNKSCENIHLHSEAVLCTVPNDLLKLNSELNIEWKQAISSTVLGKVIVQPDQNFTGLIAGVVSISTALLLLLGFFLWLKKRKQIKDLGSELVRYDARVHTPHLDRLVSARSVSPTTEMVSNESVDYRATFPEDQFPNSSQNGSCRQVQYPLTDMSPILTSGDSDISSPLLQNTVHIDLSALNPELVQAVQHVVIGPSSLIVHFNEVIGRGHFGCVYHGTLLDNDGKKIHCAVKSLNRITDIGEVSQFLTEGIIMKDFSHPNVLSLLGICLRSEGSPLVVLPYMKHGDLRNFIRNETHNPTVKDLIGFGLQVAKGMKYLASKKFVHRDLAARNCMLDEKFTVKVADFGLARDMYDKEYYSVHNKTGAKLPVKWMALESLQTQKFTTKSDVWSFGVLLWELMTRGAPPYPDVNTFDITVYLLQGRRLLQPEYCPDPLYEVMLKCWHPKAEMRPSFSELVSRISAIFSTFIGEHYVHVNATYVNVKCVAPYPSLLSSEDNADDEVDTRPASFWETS
Excerpt: The following assay is used to determine inhibition of c-Met phosphorylation.
The c-Met receptor is expressed in numerous cancer cell lines derived from tumors of epithelial origin. In MKN45 gastric carcinoma cells the c-Met gene is amplified, resulting in several-fold overexpression of the receptor and its constitutive activation. For this reason constitutively high levels of ERK1/2 are also detected in these cells, independently of HGF-added stimulation (Smolen G A, Sordella R, Muir B, Mohapatra G, Barmettler A, Archibald H, et al. Amplification of MET may identify a subset of cancers with extreme sensitivity to the selective tyrosine kinase inhibitor PHA-665752. Proc Natl Acad Sci USA 2006). We have developed a sensitive method to follow c-Met phosphorylation in these cells. In previous studies with earlier generation c-Met inhibitors, we established that the IC50s for the inhibition of c-Met phosphorylation were identical using this novel ELISA approach and standard western blot procedure, with antibodies directed against the activating autocatalysis tyrosine residues of c-MET (Tyr Y1230-34-35).
Cell treatments: MKN45 cells are seeded into wells of 96-well plates at a density of 3×10^4 cells/well in RPMI medium supplemented with 10% FBS. HA-TPR-RON expressing 293T (clone 18) cells are seeded into wells of 96-well plates at a density of 3×10^4 cells/well in DMEM medium supplemented with 10% FBS. Cells are grown for 48 h prior to treatments with compounds of interest. Inhibitors are added to the medium in triplicate wells at the indicated doses. After 3 h of treatment, media is aspirated and cells are lysed by one freeze-thaw cycle in 50 μL/well hypotonic lysis buffer (25 mM HEPES pH 7.5, 10 mM NaCl with 1 mM 4-(2-aminoethyl)benzenesulfonyl fluoride hydrochloride, 200 μM sodium orthovanadate, 1 mM sodium fluoride, 10 μg/mL of leupeptin, 10 μg/mL of aprotinin/mL, 1 μg/mL of pepstatin and 50 μg/mL Na-p-tosyl-L-lysine chloromethyl ketone hydrochloride.
Detection of phosphorylated c-Met by direct ELISA: Lysate samples (5 μL) from wells of treatment plates are transferred to 80 μL of binding buffer (25 mM HEPES pH 7.5, 200 mM NaCl) in wells of high binding white polysterene 96-well plates (Corning). After an overnight protein binding incubation at 4° C., lysates are aspirated and wells are blocked for 1 h at 37° C. in TBST supplemented with 5% BSA. Plates are incubated with the primary antibodies anti-phospho-Tyrosine (Millipore, 4G10) diluted 1/15000 in TBST supplemented with 5% BSA for 1 h at room temperature. Plates are washed 3 times on a plate washer (SkanWasher, Molecular Devises), and incubated with the reporter antibody […] (Sigma) diluted 1/15000 in TBST supplemented with 5% BSA, for 1 h at room temperature. Plates are washed 3 times with TBST using on a plate washer and subsequently incubated with chemiluminescent substrate solution (ECL, Roche). Luminescence signal is captured on a Polar Star Optima apparatus (BMG LabTech).
Average values of the triplicate samples are used to prepare IC50 curves using a 4-parameter fit model. These curves are calculated using, for example, GraFit 5.0 software. For assay standardization purpose, an internal control is included on each experimental test plate.

| Compound | inhibition in vivo at 20 mg/kg (MKN45 tumor; 192 h, 8 days) | inhibition in vivo at 40 mg/kg (MKN45 tumor) | IC50 (A549 cells) | IC50 (DU145 cells) | IC50 (VEGF receptor KDR) | IC50 [1] | IC50 (c-Met) | inhibition in vivo at 20 mg/kg (MKN45 tumor; 312 h, 13 days) |
| --- | --- | --- | --- | --- | --- | --- | --- | --- |
| COCCNCc1ccc(-c2cc3nccc(Oc4ccc(NC(=S)NC(=O)Cc5ccccc5)cc4F)c3s2)cn1 [drawing 362] | < 25% | – | – | – | – | – | – | – |
| COCCNCc1ccc(-c2cc3nccc(Oc4ccc(NC(=S)NC(=O)Cc5ccc(F)cc5)cc4F)c3s2)cn1 [drawing 363] | 25 to 50% | – | – | – | – | – | – | – |
| COCCNCc1ccc(-c2cc3nccc(Oc4ccc(NC(=S)NC(=O)Cc5ccccc5OC)cc4F)c3s2)nc1 [drawing 365] | 25 to 50% | – | – | – | – | – | – | – |
| COCCNCCn1cc(-c2cc3nccc(Oc4ccc(NC(=O)CC(=O)N(C)c5ccccc5)cc4F)c3s2)cn1 [drawing 369] | – | < 25% | – | – | – | – | – | – |
| COC[C@H](C)NCc1cccc(-c2cc3nccc(Oc4ccc(NC(=S)NC(=O)Cc5ccc(F)cc5)cc4F)c3s2)c1 [drawing 297] | – | – | 0.25 to 0.5 µM | < 0.25 µM | < 0.25 µM | < 0.25 µM | < 0.25 µM | – |
| O=C(Nc1ccccc1)C1(C(=O)Nc2ccc(Oc3ccnc4cc(-c5ccc(CNC6CC6)cc5)sc34)c(F)c2)CC1 | – | – | 0.25 to 0.5 µM | < 0.25 µM | < 0.25 µM | < 0.25 µM | < 0.25 µM | – |
| COCCNCc1cnc(-c2cc3nccc(Oc4ccc(NC(=O)CC(=O)Nc5ccccc5)cc4F)c3s2)n1C [drawing 372] | – | 25 to 50% | – | – | – | – | – | 25 to 50% |
| CN(C)CCOC(=O)N1CC=C(c2cc3nccc(Oc4ccc(NC(=O)CC(=O)N(C)c5ccccc5)cc4F)c3s2)CC1 | – | – | > 1 µM | 0.25 to 0.5 µM | < 0.25 µM | < 0.25 µM | < 0.25 µM | – |
| COCCNCc1ccc(-c2cc3nccc(Oc4ccc(NC(=S)NC(=O)Cc5ccccc5)cc4F)c3s2)nc1 | – | – | < 0.25 µM | < 0.25 µM | < 0.25 µM | < 0.25 µM | < 0.25 µM | – |
| COCCNCc1cccc(-c2cc3nccc(Oc4ccc(NC(=S)NC(=O)Cc5ccccc5)cc4F)c3s2)n1 | – | – | < 0.25 µM | < 0.25 µM | < 0.25 µM | < 0.25 µM | < 0.25 µM | – |
| COCCNCc1ccc(-c2cc3nccc(Oc4ccc(NC(=O)C5(C(=O)Nc6ccccc6)CC5)cc4F)c3s2)nc1 [drawing 350] | – | – | < 0.25 µM | < 0.25 µM | < 0.25 µM | < 0.25 µM | < 0.25 µM | – |
